Reference: ChEMBL document CHEMBL3044888, “Fungicidal activity of indole derivatives against some plant pathogenic fungi” (J Pestic Sci, 2010)
≈ marks a conversion by molar mass, not a printed value.

Columns and labels:
Fusarium culmorum [1] = assay: In vivo effect on peroxidase activity in Fusarium culmorum assessed as DNA content at 0.25 times of IC50 concentration (reference value: 49.5 +/- 1.6 mg/l); assay type: functional
Macrophomina phaseolina [2] = assay: Fungicidal activity against Macrophomina phaseoli assessed as inhibition of hyphal growth by radial growth test; assay type: functional, organism-based
[3] = system: Globisporangium debaryanum; assay: In vivo effect on peroxidase activity in Pythium debaryanum assessed as RNA content at 0.1 times of IC50 concentration (reference value: 32.2 +/- 0.7 mg/l); assay type: functional
Rhizoctonia solani [4] = assay: In vivo effect on peroxidase activity in Rhizoctonia solani assessed as total soluble sugar content per gram of dry hyphal at 0.1 times of IC50 concentration (reference value: 20.1 +/- 0.8 mg/g of dry weight); assay type: functional
[5] = system: Globisporangium debaryanum; assay: Fungicidal activity against Pythium debaryanum assessed as inhibition of hyphal growth by radial growth test; assay type: functional, organism-based
Rhizoctonia solani [6] = assay: In vivo effect on peroxidase activity in Rhizoctonia solani assessed as RNA content at 0.25 times of IC50 concentration (reference value: 25 +/- 0.7 mg/l); assay type: functional
Macrophomina phaseolina [7] = assay: In vivo effect on peroxidase activity in Macrophomina phaseoli assessed as RNA content at 0.25 times of IC50 concentration (reference value: 16.1 +/- 0.4 mg/l); assay type: functional
Macrophomina phaseolina [8] = assay: In vivo effect on peroxidase activity in Macrophomina phaseoli assessed as total soluble sugar content per gram of dry hyphal at 0.25 times of IC50 concentration (reference value: 19.3 +/- 0.7 mg/g of dry weight); assay type: functional
Rhizoctonia solani [9] = assay: In vivo effect on peroxidase activity in Rhizoctonia solani assessed as RNA content at 0.5 times of IC50 concentration (reference value: 25 +/- 0.7 mg/l); assay type: functional
Macrophomina phaseolina [10] = assay: In vivo effect on peroxidase activity in Macrophomina phaseoli assessed as total soluble sugar content per gram of dry hyphal at 0.5 times of IC50 concentration (reference value: 19.3 +/- 0.7 mg/g of dry weight); assay type: functional
Rhizoctonia solani [11] = assay: In vivo effect on peroxidase activity in Rhizoctonia solani assessed as reduced sugar content per gram of dry hyphal at 0.1 times of IC50 concentration (reference value: 17.3 +/- 1 mg/g of dry weight); assay type: functional
Macrophomina phaseolina [12] = assay: In vivo effect on peroxidase activity in Macrophomina phaseoli assessed as DNA content at 0.25 times of IC50 concentration (reference value: 15.5 +/- 0.5 mg/l); assay type: functional
Fusarium culmorum [13] = assay: Inhibition of peroxidase activity in Fusarium culmorum at 0.5 times of IC50 concentration
[14] = system: Globisporangium debaryanum; assay: In vivo effect on peroxidase activity in Pythium debaryanum assessed as DNA content at 0.25 times of IC50 concentration (reference value: 31 +/- 0.8 mg/l); assay type: functional
Rhizoctonia solani [15] = assay: In vivo effect on peroxidase activity in Rhizoctonia solani assessed as RNA content at 0.1 times of IC50 concentration (reference value: 25 +/- 0.7 mg/l); assay type: functional
Fusarium culmorum [16] = assay: In vivo effect on peroxidase activity in Fusarium culmorum assessed as DNA content at 2 times of IC50 concentration (reference value: 49.5 +/- 1.6 mg/l); assay type: functional
Fusarium culmorum [17] = assay: In vivo effect on peroxidase activity in Fusarium culmorum assessed as DNA content at 0.5 times of IC50 concentration (reference value: 49.5 +/- 1.6 mg/l); assay type: functional
Rhizoctonia solani [18] = assay: In vivo effect on peroxidase activity in Rhizoctonia solani assessed as DNA content at 0.5 times of IC50 concentration (reference value: 24 +/- 0.7 mg/l); assay type: functional
Macrophomina phaseolina [19] = assay: In vivo effect on peroxidase activity in Macrophomina phaseoli assessed as reduced sugar content per gram of dry hyphal at 0.5 times of IC50 concentration (reference value: 7.3 +/- 0.5 mg/g of dry weight); assay type: functional
Rhizoctonia solani [20] = assay: In vivo effect on peroxidase activity in Rhizoctonia solani assessed as DNA content at 0.1 times of IC50 concentration (reference value: 24 +/- 0.7 mg/l); assay type: functional
Macrophomina phaseolina [21] = assay: In vivo effect on peroxidase activity in Macrophomina phaseoli assessed as DNA content at 1 times of IC50 concentration (reference value: 15.5 +/- 0.5 mg/l); assay type: functional
Rhizoctonia solani [22] = assay: In vivo effect on peroxidase activity in Rhizoctonia solani assessed as reduced sugar content per gram of dry hyphal at 0.25 times of IC50 concentration (reference value: 17.3 +/- 1 mg/g of dry weight); assay type: functional
Macrophomina phaseolina [23] = assay: In vivo effect on peroxidase activity in Macrophomina phaseoli assessed as non-reducing sugar content per gram of dry hyphal at 0.1 times of IC50 concentration (reference value: 12 +/- 0.8 mg/g of dry weight); assay type: functional
[24] = Activation of peroxidase activity in Rhizoctonia solani
Macrophomina phaseolina [25] = assay: In vivo effect on peroxidase activity in Macrophomina phaseoli assessed as reduced sugar content per gram of dry hyphal at 0.25 times of IC50 concentration (reference value: 7.3 +/- 0.5 mg/g of dry weight); assay type: functional
Rhizoctonia solani [26] = assay: In vivo effect on peroxidase activity in Rhizoctonia solani assessed as RNA content at 1 times of IC50 concentration (reference value: 25 +/- 0.7 mg/l); assay type: functional
Macrophomina phaseolina [27] = assay: In vivo effect on peroxidase activity in Macrophomina phaseoli assessed as RNA content at 2 times of IC50 concentration (reference value: 16.1 +/- 0.4 mg/l); assay type: functional
Rhizoctonia solani [28] = assay: In vivo effect on peroxidase activity in Rhizoctonia solani assessed as RNA content at 2 times of IC50 concentration (reference value: 25 +/- 0.7 mg/l); assay type: functional
Fusarium culmorum [29] = assay: Fungicidal activity against Fusarium culmorum assessed as inhibition of hyphal growth by radial growth test; assay type: functional, organism-based
Rhizoctonia solani [30] = assay: In vivo effect on peroxidase activity in Rhizoctonia solani assessed as non-reducing sugar content per gram of dry hyphal at 0.1 times of IC50 concentration (reference value: 2.8 +/- 0.2 mg/g of dry weight); assay type: functional
Fusarium culmorum [31] = assay: In vivo effect on peroxidase activity in Fusarium culmorum assessed as RNA content at 0.1 times of IC50 concentration (reference value: 51.5 +/- 1.5 mg/l); assay type: functional
[32] = system: Globisporangium debaryanum; assay: Inhibition of peroxidase activity in Pythium debaryanum at 0.1 times of IC50 concentration
[33] = system: Globisporangium debaryanum; assay: In vivo effect on peroxidase activity in Pythium debaryanum assessed as RNA content at 0.25 times of IC50 concentration (reference value: 32.2 +/- 0.7 mg/l); assay type: functional
Macrophomina phaseolina [34] = assay: In vivo effect on peroxidase activity in Macrophomina phaseoli assessed as DNA content at 0.5 times of IC50 concentration (reference value: 15.5 +/- 0.5 mg/l); assay type: functional
Rhizoctonia solani [35] = assay: In vivo effect on peroxidase activity in Rhizoctonia solani assessed as non-reducing sugar content per gram of dry hyphal at 0.25 times of IC50 concentration (reference value: 2.8 +/- 0.2 mg/g of dry weight); assay type: functional
Macrophomina phaseolina [36] = assay: In vivo effect on peroxidase activity in Macrophomina phaseoli assessed as total soluble sugar content per gram of dry hyphal at 1 times of IC50 concentration (reference value: 19.3 +/- 0.7 mg/g of dry weight); assay type: functional
Fusarium culmorum [37] = assay: Inhibition of peroxidase activity in Fusarium culmorum at 0.1 times of IC50 concentration

| SMILES | Activity (Fusarium culmorum [1]) | IC50 (Macrophomina phaseolina [2]) | Activity [3] | Activity (Rhizoctonia solani [4]) | IC50 [5] | Activity (Rhizoctonia solani [6]) | Activity (Macrophomina phaseolina [7]) | Activity (Macrophomina phaseolina [8]) | Activity (Rhizoctonia solani [9]) | Activity (Macrophomina phaseolina [10]) | Activity (Rhizoctonia solani [11]) | Activity (Macrophomina phaseolina [12]) | inhibition (Fusarium culmorum [13]) | Activity [14] | Activity (Rhizoctonia solani [15]) | Activity (Fusarium culmorum [16]) | Activity (Fusarium culmorum [17]) | Activity (Rhizoctonia solani [18]) | Activity (Macrophomina phaseolina [19]) | Activity (Rhizoctonia solani [20]) | also measured |
| --- | --- | --- | --- | --- | --- | --- | --- | --- | --- | --- | --- | --- | --- | --- | --- | --- | --- | --- | --- | --- | --- |
| c1ccc(-c2cc3ccccc3[nH]2)cc1 [2-PHENYL-1H-INDOLE] | 23.7 mg/L | 96 µg/mL (≈ 497 µM) | 32.1 mg/L | 58.4 mg | 17.7 µg/mL (≈ 91.6 µM) | 30 mg/L | 7.2 mg/L | 9.7 mg | 30.8 mg/L | 4.3 mg | 44.3 mg | 6.8 mg/L | 53.8% | 19.1 mg/L | 29.4 mg/L | 23.8 mg/L | 18 mg/L | 29.6 mg/L | 2.9 mg | 28.3 mg/L | Activity (Macrophomina phaseolina [21]): 6.1 mg/L; Activity (Rhizoctonia solani [22]): 60.3 mg; Activity (Macrophomina phaseolina [23]): 2.4 mg; AC50 [24]: 14.5 µg/mL (≈ 75 µM); Activity (Macrophomina phaseolina [25]): 4.6 mg; Activity (Rhizoctonia solani [26]): 32.2 mg/L; Activity (Macrophomina phaseolina [27]): 5.9 mg/L; Activity (Rhizoctonia solani [28]): 28 mg/L; IC50 (Fusarium culmorum [29]): 67.4 µg/mL (≈ 349 µM); Activity (Rhizoctonia solani [30]): 14.1 mg; Activity (Fusarium culmorum [31]): 29.7 mg/L; inhibition [32]: 19.3%; Activity [33]: 19.8 mg/L; Activity (Macrophomina phaseolina [34]): 8 mg/L; Activity (Rhizoctonia solani [35]): 11.4 mg; Activity (Macrophomina phaseolina [36]): 7.1 mg; inhibition (Fusarium culmorum [37]): 7.5% |
| CC(=O)n1c(-c2ccccc2)cc2ccccc21 | 29.9 mg/L | 93 µg/mL (≈ 395 µM) | 27 mg/L | 12.2 mg | 15 µg/mL (≈ 63.8 µM) | 26.2 mg/L | 10.6 mg/L | 22.2 mg | 27.9 mg/L | 31 mg | 9.7 mg | 10.3 mg/L | -7.9% | 25.8 mg/L | 23.6 mg/L | 19.5 mg/L | 28 mg/L | 26.6 mg/L | 20.8 mg | 23.2 mg/L | Activity (Macrophomina phaseolina [21]): 8.2 mg/L; Activity (Rhizoctonia solani [22]): 9.6 mg; Activity (Macrophomina phaseolina [23]): 1.7 mg; AC50 [24]: < 11.7 µg/mL; Activity (Macrophomina phaseolina [25]): 14.8 mg; Activity (Rhizoctonia solani [26]): 32.6 mg/L; Activity (Macrophomina phaseolina [27]): 6.7 mg/L; Activity (Rhizoctonia solani [28]): 36.1 mg/L; IC50 (Fusarium culmorum [29]): 86.7 µg/mL (≈ 368 µM); Activity (Rhizoctonia solani [30]): 2.5 mg; Activity (Fusarium culmorum [31]): 45.4 mg/L; inhibition [32]: 0%; Activity [33]: 26.8 mg/L; Activity (Macrophomina phaseolina [34]): 8.3 mg/L; Activity (Rhizoctonia solani [35]): 1.2 mg; Activity (Macrophomina phaseolina [36]): 34.7 mg; inhibition (Fusarium culmorum [37]): 85% |
